Source: US8962691B2, “Retinoid replacements and opsin agonists and methods for the use thereof” (University of Washington, priority 2003, dated 2015)

How the values were obtained:
rhodopsin kinase = test: Phosphorylation of regenerated rhodopsin by rhodopsin kinase; assay type: biochemical; settings: in vitro
Method: Regenerated rhodopsin (2 mg/ml) was mixed in 100 μl of 100 mM sodium phosphate buffer, pH 7.2, containing 5 mM MgCl2, 0.5 mM [^32P]ATP (approximately 35,000 to approximately 50,000 cpm/nmol) and purified rhodopsin kinase (approximately 5 μg of protein), and the assay was carried out as described previously (Palczewski et al., J. Biol. Chem. 266:1294955 (1991)). Studies were performed in triplicate.

rhodopsin = target: T1, rhodopsin (Bos taurus, UniProt P02699); test: FTIR spectroscopy of regenerated rhodopsin; assay type: biochemical; settings: for FTIR difference spectra of regenerated rhodopsin upon photoactivation: 7-ring analogs
T1 construct: Opsin membranes (24 μM) (Sachs et al., J. Biol. Chem. 275:6189-94 (2000)); from tissue; rod outer segment membranes by inference
Method: Opsin membranes (24 μM) (Sachs et al., J. Biol. Chem. 275:6189-94 (2000)) were incubated overnight with 240 μM 11-cis-retinal or with the mixture of either 11-cis-6-ring- or 11-cis-7-ring-retinal isomers in the BTP buffer (20 mM BTP, pH 7.5, containing 1 mM MgCl2 and 130 mM NaCl). Suspensions of membranes were centrifuged for 25 minutes at 100,000×g and resuspended in the BTP buffer to yield 2.2 mM rhodopsin (from absorption at 500 nm). […] For H2O/D2O exchange, the pellet was resuspended three times in deuterated buffer. The buffer solution was removed, and the pellet transferred to a 30-mm-diameter temperature-controlled transmission cell with two BaF2 windows and a 3 μm polytetrafluoroethylen gasket. The spectra were recorded using a Bruker ifs 66-V spectrometer (Bard et al., FEBS Lett. 473:259-64 (2000)). For all samples, Meta II minus rhodopsin difference spectra were produced.

Gt = test: Kinetic light scattering (Gt activation); assay type: biochemical
Method: Light-scattering changes were measured as previously described (Heck et al., Methods Enzymol. 315:32947 (2000)). Measurements were performed in 10-mm path cuvettes with 300-μl volumes in isotonic buffer (20 mM BTP, 130 mM NaCl, and 1 mM MgCl2, pH 6.4, as indicated in the legend to FIG. 6) at 22° C. with a 5-ms dwell time of the A/D converter (Nicolet 400, Madison, Wis.). Samples contained membrane suspension (3 μM rhodopsin) reconstituted with purified Gt (0.8 μM) and 1 mM GTP. Reactions were triggered by flash photolysis of rhodopsin with a green (500±20 nm) flash attenuated by appropriate neutral density filters. The flash intensity was quantified photometrically by the amount of rhodopsin bleached and expressed in terms of the mole fraction of photoexcited rhodopsin (Rh*/Rh).

opsin = target: T2, opsin (Bos taurus, UniProt P02699); test: Photoisomerization (bleaching) of 11-cis-7-ring-retinals in solution and bound to opsin
T2 construct: Preparation of rod outer segment, opsin, rhodopsin regeneration with retinals; from tissue; host or cells: rod outer segments
Method: Preparation of rod outer segment, opsin, rhodopsin regeneration with retinals, and purification of rhodopsin on a concanavalin A-Sepharose 4B column were conducted as described previously (Jang et al., J. Biol. Chem. 276:26148-53 (2001)).

Rpe65−/− mice [1] = test: In vivo regeneration of rhodopsin with 6- and 7-ring isomers; set-up: species or system mouse
Source text: All animal studies employed procedures approved by the University of Washington Animal Care Committee and conformed to recommendations of the American Veterinary Medical Association Panel on Euthanasia. All animals were maintained in complete darkness, and all manipulations were done under dim red light employing a Kodak No. 1 Safelight filter (transmittance >560 nm). Typically, 2-3-month-old mice were used in all studies. RPE65-deficient mice were obtained from M. Redmond (National Eye Institute, National Institutes of Health. Bethesda, Md.) and genotyped as described previously (Redmond et al., Nat. Genet. 20:344-51 (1998; Redmond et al. Methods Enzymol. 316:705-24 (2000)).
All procedures were performed under dim red light as described previously (Van Hooser et al., Proc. Natl. Acad. Sci. USA 97:862328 (2000); Jang. et al., J. Biol. Chem. 276:3245665 (2001); Palczewski et al., Biochemistry 38:12012-19 (1999)).

Rpe65−/− mice [2] = tested on: Rpe65−/− mice
Method: Mice were anesthetized by intraperitoneal injection with 15 μl/g body weight of 6 mg/ml ketamine and 0.44 mg/ml xylazine diluted with 10 mM phosphate buffer, pH 7.2, containing 100 mM NaCl. The pupils were dilated with 1% tropicamide. A contact lens electrode was placed on the eye with a drop of methylcellulose, and a ground electrode (a reference electrode) was placed in the ear. ERGs were recorded with the universal testing and electrophysiologic system 3000 (UTAS E-3000) (LKC Technologies, Inc.). The mice were placed in a Ganzfield chamber, and responses to flash stimuli were obtained from both eyes simultaneously. […] Two to four recordings were made with >10-second intervals. Typically, 4-8 animals were used for recording of each point in all conditions. All ERG measurements were done within 10-40 minutes after anesthesia.

T2 sequence (P02699 whole entry): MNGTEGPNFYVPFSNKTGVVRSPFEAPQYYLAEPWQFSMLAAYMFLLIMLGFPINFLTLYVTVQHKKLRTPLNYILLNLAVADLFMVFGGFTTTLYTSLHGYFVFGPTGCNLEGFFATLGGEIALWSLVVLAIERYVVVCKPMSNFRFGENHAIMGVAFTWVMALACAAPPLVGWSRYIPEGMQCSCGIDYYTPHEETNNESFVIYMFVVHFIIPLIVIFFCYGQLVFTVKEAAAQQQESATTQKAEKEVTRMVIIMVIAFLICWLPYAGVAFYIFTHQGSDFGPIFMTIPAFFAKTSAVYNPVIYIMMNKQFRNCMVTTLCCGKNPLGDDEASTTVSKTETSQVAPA
T1 sequence (P02699 whole entry): as above

For “11-cis-7-ring-rhodopsin: rhodopsin regenerated with 11-cis-7-ring-retinal”, the “activity in phosphorylation assay with purified rhodopsin kinase” value (rhodopsin kinase) was “inactive”.
For “Meta II: catalytically active rhodopsin intermediate containing all-trans-retinal bound to Lys296 of opsin [reference compound]”, the “pKa of the light-induced active species” value (rhodopsin) was 6.7.
In the case of “11-cis-6-ring-rhodopsin: rhodopsin regenerated with 11-cis-6-ring-retinal (2-carbon bridge)”, the “activity relative to the 7-locked pigment” value (Gt) is reported as “markedly higher”, the “pKa of the light-induced active species” value (rhodopsin) is reported as 5.4 and the “FTIR: photoproduct after bleaching” value (rhodopsin; pH 4.5) is reported as “Meta II-like product that is able to bind Gt-(340-350) derived peptide”. For the same substance, the “FTIR: activity after bleaching” value (rhodopsin; pH 7.5) was “only residual activity”.
For 11,13-di-cis-7-ring retinal [isomer 2], the “isomerization when bound to opsin” value (opsin) was “converts readily to isomer 3 even in the dark” and the “FTIR difference spectra of regenerated rhodopsin upon photoactivation” value (“FTIR difference spectra” below) (rhodopsin) was “inactive”.
For 11-cis-6-ring-retinal, the “sensitivity of activity to hydroxylamine” value (Gt) was “sensitive to hydroxylamine”, the “intensity of activating light flash needed for Gt activation rates comparable to wild-type rhodopsin” value (Gt; membranes with regenerated rhodopsin) was 1350 fold and the “pH dependence of Gt activation” value (Gt; pH 6.4 vs 7.4) was “enhanced at acidic pH”. The “isomeric products in visual pigment after injection of isomer mixture” value (Rpe65−/− mice [1]) was “three isomers”, the “activity of rhodopsin regenerated in vivo” value (Rpe65−/− mice [2]; Rpe65−/− mice) was “active at higher bleaches” and the “ERG activity (a- and b-wave) compared with Me2SO” value (Rpe65−/− mice [2]; mouse, in vivo) was “clearly elevated”.
For 11-cis-7-ring retinal [isomer 3], the “activity relative to wild-type” value (Gt; regenerated rhodopsin) was 0.10%, the “regeneration of opsin in vivo” value (Rpe65−/− mice [1]) was “readily and preferentially regenerated” and the “isomerization when bound to opsin” value (opsin) was “most stable to isomerization”. The “FTIR difference spectra” value (rhodopsin) was “inactive”.
“9,11,13-tri-cis-7-ring retinal [isomer 1]” was tested, and the “abundance in isomer mixture after bleaching” value (opsin; bleaching 7-ring-retinoids in solution) was “least abundant isomer” and the “FTIR difference spectra” value (rhodopsin) was “only minor changes in the difference spectra”.
9,11-di-cis-7-ring retinal [isomer 4] was tested, and the “FTIR difference spectra” value (rhodopsin) was “only minor changes in the difference spectra”.
